Measured values taken from article PMC5774136, “Alarm pheromone and kairomone detection via bitter taste receptors in the mouse Grueneberg ganglion” (BMC Biology, 2018).

Columns and labels:
Test in all cases: Fura-2 calcium imaging, transfected HEK cells
Format in all cases: cell-based
TAS2R143 [1] = molecular target: T1, TAS2R143 (Mus musculus, UniProt Q7TQB9); settings: 500 uM ligand; agonist; Galpha16-gustducin chimera co-expressed
T1 construct: N-terminal tag of first 39 residues of bovine rhodopsin; pcDNA3.1(+); HEK 293 cells (ATCC CRL-1573); co-expressed human Galpha16 / mouse gustducin C-terminal 44 chimera
T1 sequence (Q7TQB9 1-293): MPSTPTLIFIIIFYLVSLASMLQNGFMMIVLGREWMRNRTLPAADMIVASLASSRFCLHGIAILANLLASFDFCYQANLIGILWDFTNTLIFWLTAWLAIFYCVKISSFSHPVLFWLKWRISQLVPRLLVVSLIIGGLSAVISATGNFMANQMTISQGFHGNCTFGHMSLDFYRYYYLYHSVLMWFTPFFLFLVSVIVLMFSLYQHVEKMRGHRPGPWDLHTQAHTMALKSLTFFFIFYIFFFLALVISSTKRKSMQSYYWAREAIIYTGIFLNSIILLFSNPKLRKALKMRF

TAS2R143 [2] = molecular target: T1, TAS2R143; settings: 100 uM ligand; agonist; Galpha16-gustducin chimera co-expressed
TAS2R115 = molecular target: T2, TAS2R115 (Mus musculus, UniProt Q7M719); settings: 100 uM ligand; weak agonist; Galpha16-gustducin chimera co-expressed
T2 construct: N-terminal tag of first 39 residues of bovine rhodopsin; pcDNA3.1(+); HEK 293 cells (ATCC CRL-1573); co-expressed human Galpha16 / mouse gustducin C-terminal 44 chimera
T2 sequence (Q7M719 1-310): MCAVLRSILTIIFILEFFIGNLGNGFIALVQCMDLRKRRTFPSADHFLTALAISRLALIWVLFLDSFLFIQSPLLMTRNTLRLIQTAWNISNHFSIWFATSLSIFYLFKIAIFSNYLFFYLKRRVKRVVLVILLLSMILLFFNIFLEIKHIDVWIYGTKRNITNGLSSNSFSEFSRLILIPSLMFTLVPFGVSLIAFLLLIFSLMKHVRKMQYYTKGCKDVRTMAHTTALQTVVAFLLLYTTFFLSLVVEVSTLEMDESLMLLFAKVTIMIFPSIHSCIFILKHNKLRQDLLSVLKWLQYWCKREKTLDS

TAS2R131 = molecular target: T3, TAS2R131 (Mus musculus, UniProt Q7M708); settings: 100 uM ligand; weak agonist; Galpha16-gustducin chimera co-expressed
T3 construct: N-terminal tag of first 39 residues of bovine rhodopsin; pcDNA3.1(+); HEK 293 cells (ATCC CRL-1573); co-expressed human Galpha16 / mouse gustducin C-terminal 44 chimera
T3 sequence (Q7M708 1-310): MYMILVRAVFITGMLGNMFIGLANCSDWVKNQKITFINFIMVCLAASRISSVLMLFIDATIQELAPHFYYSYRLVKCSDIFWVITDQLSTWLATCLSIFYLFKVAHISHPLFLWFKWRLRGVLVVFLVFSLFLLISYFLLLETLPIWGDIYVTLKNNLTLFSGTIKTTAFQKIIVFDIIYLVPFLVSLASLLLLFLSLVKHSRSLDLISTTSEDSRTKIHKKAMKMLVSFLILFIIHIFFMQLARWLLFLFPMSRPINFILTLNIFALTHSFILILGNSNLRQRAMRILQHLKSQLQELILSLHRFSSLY

Row | % of transfected cells responding at 500 uM (TAS2R143 [1]) | % of transfected cells responding at 100 uM (TAS2R143 [2]) | % of transfected cells responding at 100 uM (TAS2R115) | % of transfected cells responding at 100 uM (TAS2R131) | Compound
1 | 51% |  |  |  | 2,4,5-trimethylthiazoline [TMT]
2 |  | 13% |  |  | CCC(C)C1=NCCS1 (stereo not drawn) [SBT, 2-sec-butylthiazoline]
3 |  | 14% | ~ 5% | ~ 5% | CCc1cnccn1 [2-EP, 2-ethylpyrazine]
4 |  | 47% |  |  | CCCC1CCS1 (stereo not drawn) [2-PT, 2-propylthietane]
